Measurements reported in patent US9193746B2, “Luminescent metal complexes and associated technology” (BIOTIUM, INC., priority 2006, dated 2015).

System: electrophoretically separated proteins (Precision Plus Protein Standard) in a SDS-PAGE gel
Assay: Detection of electrophoretically separated proteins in a SDS-PAGE gel by luminescent staining
Settings: for Staining of proteins in gel (yes/no): Example 18, FIG. 4: 1.5 μM complex, 30% MeOH, 14% acetic acid, room temperature, 90 minutes
Procedure: A gel preparation procedure is now described. Five μL of an unstained Precision Plus Protein Standard (Catalog No. 161-0363 from Bio-Rad Laboratories (Hercules, Calif.) (hereinafter, “Bio-Rad”)) were separated on the left column of a polyacrylamide pre-cast gel (Catalog No. 161-1176, a Ready Gel from Bio-Rad) in running buffer containing 20 mM glycine, 2.5 mM Tris and 0.1% SDS, using a standard SDS-PAGE procedure. Five 5 μL of the same standard diluted five times were separated on the right column of the polyacrylamide pre-cast gel under the same conditions.
The foregoing procedure was used to prepare one gel, which was further processed as described below using a particular staining solution. Separately, the same procedure was used to prepare another gel, which was further processed as described below using a different staining solution.
At the end of each of these periods, the gel was taken out of the solution, illuminated, and photographed, and if a further period remained, returned to the solution until the end of that further period. A UV transilluminator (300-nm wavelength) was used to illuminate the gel and Polaroid 667 black-and-white film was used to photograph the gel. The gel was not destained before being photographed.
A gel was prepared according to the gel preparation procedure described in connection with Example 15. The gel was then processed as now described. The gel was placed in a fixation solution comprising 50% MeOH and 7% acetic acid for 30 minutes to fix the gel. […] The gel was not destained before being photographed.
A gel was prepared according to the gel preparation procedure described in connection with Example 15. The gel was then processed as now described. The gel was placed in a fixation solution comprising 50% MeOH and 7% acetic acid for 1 hour to fix the gel. […] The gel was not destained before being photographed.
Three gels were prepared, each according to the gel preparation procedure described in connection with Example 15. One of the gels was stained using a staining solution comprising 1.5 μM of [Ru(bpy)3]Cl2 (Aldrich, Milwaukee, Wis.), wherein “bpy” is unsubstituted 2,2′-bipyridine, 30% MeOH and 14% acetic acid. Another of the gels was stained using a staining solution comprising 1.5 μM of [Ru(1,10-phenanthroline)3]Cl2 (Aldrich, Milwaukee, Wis.), 30% MeOH and 14% acetic acid. […] Each gel was stained by incubating it in the appropriate staining solution at room temperature for 90 minutes, whereupon each gel was taken out of the staining solution, illuminated and photographed in the manner described in connection with Example 15. No gel was destained before being photographed.

Molecule	Staining of proteins in gel (yes/no) (not destained)	Protein staining in gel (sensitivity, background) (Example 17, FIG. 3: fixed gel, 2 μM complex, 1% ethanol in H2O, overnight, not destained)	Protein staining compared with SYPRO Ruby stain (Example 17, FIG. 3 versus FIG. 1, without destaining)
[Cl][Ru][Cl].c1ccc(-c2ccccn2)nc1.c1ccc(-c2ccccn2)nc1.c1ccc(-c2ccccn2)nc1 [[Ru(bpy)3]Cl2]	failed to stain proteins	–	–
[Cl][Ru][Cl].c1cnc2c(c1)ccc1cccnc12.c1cnc2c(c1)ccc1cccnc12.c1cnc2c(c1)ccc1cccnc12 [[Ru(1,10-phenanthroline)3]Cl2]	failed to stain proteins	–	–
Re[(bathocuproin disulfonate)(CO)3(4-phenylpyridine)]^−Na^+ [Complex No. 2]	–	good sensitivity and relatively low background	performing at least as well as, if not outperforming, SYPRO Ruby
